What follows are compounds tested against Phospholipase A2 (Homo sapiens, UniProt P04054) (assay: Phospholipase A2 Vesicle Assay). Details: pH 9; 40 °C.
Chain of Phospholipase A2 (P04054 whole entry): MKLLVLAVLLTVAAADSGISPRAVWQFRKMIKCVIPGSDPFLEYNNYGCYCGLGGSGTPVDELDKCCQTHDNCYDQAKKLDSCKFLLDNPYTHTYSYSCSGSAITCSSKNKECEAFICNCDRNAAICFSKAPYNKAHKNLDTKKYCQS
Excerpt: Inhibition assay using phospholipase A2.
`CCCCCCCCCCC/C=C/C(C)(C)/C=C/CCCC(=O)O` [7,7-dimethyl-5,8-eicosadienoic acid] was tested, and the IC50 was 16 µM.
`O=C(CBr)c1ccc(Br)cc1` [2-bromo-1-(4-bromophenyl)ethan-1-one] showed an IC50 of 550 µM.
For `CC(C)=CCC/C(C)=C/C/C(C=O)=C\CCC1=CC(=O)OC1O` (stereo not drawn) [Manoalogue], the IC50 was 26 µM.
